Laboratory results reported in US20250179028A1, “ACRYLAMIDE COMPOUNDS” (NRG THERAPEUTICS LTD, priority 2022, published 2025).
≈ marks a conversion by molar mass, not a printed value. Where two headings read alike, the source gives them in different places.

How the values were obtained:
[1] = Hepatocyte clearance assay, human; format: in vitro ADME; conditions: cryopreserved primary human hepatocytes, average value from two experiments, read-out: Human heps Clint
Method: (§1) In vitro clearance studies were performed in primary rat and human hepatocytes (BiolVT). Vials of cryopreserved rat or human hepatocytes were thawed in a 37° C. water bath for 2 min. Cells were transferred into thawing medium (Williams' Medium E containing 30% Percoll, 1×GlutaMAX-1, 15 mM HEPES, 5% fetal bovine serum (FBS), 4 μg/ml insulin, 1 μM dexamethasone), centrifuged at 100 g for 10 min then resuspended in culture medium (Leibovitz's L-15 Medium) at a concentration of 0.5×10^6 viable cells/mL (number of viable cells assessed using AO/PI staining). Hepatocytes (198 μL) were transferred into wells of a 96-well non-coated plate and placed in a 37° C. incubator for 10 min. Test compound solutions were prepared from 10 mM stocks in DMSO, diluted to 100 μM in 50% (v/v in water) acetonitrile. Test compound samples (2 μl) were added to each well of hepatocytes and incubated at 37° C. Samples (25 μl) were collected at t=0, 15, 30, […] and 120 min, mixed with 6 volumes (150 μl) of acetonitrile containing internal standard (100 nM alprazolam, 200 nM caffeine and 100 nM tolbutamide), vortexed for 5 min and centrifuged for 45 min at 3220 g. An aliquot of supernatant (100 μL) was diluted with 100 μL ultra-pure water, and the mixture was used for LC/MS/MS analysis. All incubations were performed in duplicate. Peak areas were determined from extracted ion chromatograms. The slope value, k, was determined by linear regression of the natural logarithm of the remaining percentage of the parent drug vs. incubation time curve. The in vitro half-life (in vitro t½) was determined from the slope value: in vitro t½=0.693/k. Conversion of the in vitro t½ (in min) into the in vitro intrinsic clearance (in vitro CLint, in μL/min/1×10^6 cells) was done using the following equation (mean of duplicate determinations):
(§2) [formula] • V=incubation volume (0.2 mL) • N=number of hepatocytes per well (0.1×10^6 cells).

[2] = system: mPTP; experiment: mPTP activity (Ca2+ retention) assay in isolated rat liver mitochondria; format: biochemical; conditions: isolated rat liver mitochondria; average value from multiple experiments (n ≥ 2)
Procedure, shortened: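 Freshly isolated female Sprague Dawley rat liver mitochondria were energised with succinate and rotenone in pH 7.4 buffer with Fluo5N, then pre-incubated 10 min at RT with compound (30 μM to 1 nM final) before a 75 μM CaCl2 bolus. The IC50 used 10-min fluorescence, normalised to DMSO and 5 μM cyclosporin A.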

[3] = Hepatocyte clearance assay, rat; format: in vitro ADME; conditions: cryopreserved primary rat hepatocytes, average value from two experiments, read-out: Rat heps Clint
Method: as §1, §2

[4] = system: mPTP; experiment: mPTP activity assay in isolated rat brain mitochondria; format: biochemical; conditions: isolated rat brain mitochondria
Method: mPTP activity was measured in brain mitochondria freshly isolated from female Sprague Dawley (250 to 300 gram) rats. Anaesthetised rats were perfused in-situ with ˜40 ml cold Dulbecco's Phosphate Buffered Saline (DPBS), then brains dissected and transferred into 30 ml Isolation Buffer (225 mM mannitol, 75 mM sucrose, 1 mM EGTA, adjusted to pH 7.4 with 1 M NaOH). The brain was minced using tweezers and a scalpel into ˜5 mm pieces then transferred into a 50 ml Potterton Dounce homogenization tube on ice containing 10 ml ice-cold isolation buffer (as above with addition of Complete Protease inhibitor; 1 tablet per 50 ml buffer).
Homogenisation was carried out using a […] pestle at 1800 rpm. The slurry was centrifuged at 2000 g for 10 min at 4° C., then the supernatant centrifuged at 12,000 g for 9 min. The pellet was resuspended with a dounce homogeniser in isolation buffer as above but with the addition of 0.02% digitonin, centrifuged at 12,000 g for 11 min and finally resuspended in 5 ml modified isolation buffer (as above but with EGTA reduced to 0.1 mM).
Test compounds were prepared in 384 well polypropylene assay plates as described above for the liver mitochondria assay. A stock mitochondria/Fluo5N assay solution was prepared in 5.6 ml assay buffer (120 mM mannitol, 40 mM MOPS, 5 mM KH2PO4, 60 mM KCl, 10 mM pyruvate, 2 mM malate, 2 mM MgCl2, 20 μM ADP, 1.26 μM oligomycin A, adjusted to pH 7.4) supplemented with Fluo5N pentapotassium salt (2 μM) and 1 ml mitochondria suspension, then transferred (15 μl) into the assay plate containing test compounds and incubated for 10 min at RT. Assay plates were then transferred to a FLIPR Tetra plate reader (Molecular Devices). Dye fluorescence was then measured every 3 sec for a total of 10 min. After 12 sec, a 2.5 μl bolus of Ca2+ (75 μM) was added from a source plate containing 675 μM CaCl2) in FLIPR assay buffer. IC50 values for test compounds were calculated using the fluorescence value collected at the 10 min timepoint with % inhibition calculated using the DMSO control and cyclosporin A values at […].

[5] = PBS and FaSSIF solubility; format: physicochemical; conditions: kinetic from dmso stock
Method: Test compounds were prepared as 10 mM stocks in DMSO and 15 μl samples transferred in duplicate into 1.5 mL glass flat bottom vials (BioTech Solutions). Fasted state simulated intestinal fluid (FaSSIF) or PBS (pH 7.4) was added to each vial to final volume of 500 μl. One PTFE encapsulated stir stick (V&P Scientific) was placed in each vial before sealing with PTFE/SIL plugs (BioTech Solutions). Vials were shaken at 1100 rpm for 2 hr at 25° C. Samples were then filtered through MultiScreen Solvinert filter plates (Millipore) via vacuum filtration. Aliquots of filtrate (5 μl) plus 5 μl DMSO were diluted in 490 μl 50% acetonitrile in water containing internal standard. The filtrate was analysed and quantified against a standard of known concentration using LC-MS/MS. Solubility values of the test compound and control compound were calculated as follows: […]

[6] = target: CYP2D6 (Homo sapiens (Human), UniProt P10635); experiment: Cytochrome P450 CYP2D6 inhibition in human liver microsomes; format: in vitro ADME; conditions: probe dextromethorphan 2 µM (dextrorphan formation); 1 uM test compound, human liver microsomes; average value from two experiments; negative values = no effective inhibition
CYP2D6, sequence (P10635 whole entry): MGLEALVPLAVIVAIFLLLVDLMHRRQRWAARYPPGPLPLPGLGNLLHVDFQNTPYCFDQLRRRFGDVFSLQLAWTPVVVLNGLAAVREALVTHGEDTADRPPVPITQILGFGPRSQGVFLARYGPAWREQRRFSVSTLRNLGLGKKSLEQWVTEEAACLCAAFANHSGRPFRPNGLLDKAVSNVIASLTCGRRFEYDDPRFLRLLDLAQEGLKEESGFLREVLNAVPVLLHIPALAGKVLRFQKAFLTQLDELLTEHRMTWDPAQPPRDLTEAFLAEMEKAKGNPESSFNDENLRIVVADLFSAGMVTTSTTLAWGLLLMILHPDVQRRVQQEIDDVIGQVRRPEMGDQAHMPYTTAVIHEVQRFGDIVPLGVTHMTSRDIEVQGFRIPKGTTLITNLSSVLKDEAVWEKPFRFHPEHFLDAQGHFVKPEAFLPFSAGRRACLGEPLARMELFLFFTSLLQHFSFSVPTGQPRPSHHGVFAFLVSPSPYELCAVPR
Procedure, shortened: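 Human liver microsomes (0.2 mg/mL) with 2 μM dextromethorphan in 100 mM PBS, test compound at 1 μM or 0.1-30 μM, 15 min preincubation then NADPH-started reaction for 20 min at 37° C, in duplicate. Dextrorphan formation by UPLC-MS/MS; IC50 from % decrease versus uninhibited control.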

[7] = fasted state simulated intestinal fluid (FaSSIF), fassif, Fasted state simulated intestinal fluid, 2 hr at 25° C., read-out: Solubility FaSSIF

SMILES | hepatocyte CLint at 1 µM [1] | mPTP Rat liver pIC50 [2] | mPTP Rat brain pIC50 [4] | solubility at 2 h [5, 7] | inhibition at 20 min, 1 µM [6] | solubility at 2 h ([5]; aqueous buffer, PBS pH 7.4, 2 hr at 25° C., read-out: Solubility PBS (pH 7.4)) | hepatocyte CLint at 1 µM [3]
COc1cc(C)c(NC(=O)/C=C/c2cc3[nH]nc(C#N)c3cc2F)c(C)n1 [Example 98, (2E)-3-(3-cyano-5-fluoro-1H-indazol-6-yl)-N-(6-methoxy-2,4-dimethylpyridin-3-yl)prop-2-enamide] | 9 µL/min/1e6 cells | 6.9 | 7.0 |  |  |  | 7 µL/min/1e6 cells
Cc1n[nH]c2cc(/C=C/C(=O)N[C@H]3c4ccccc4C[C@@H]3OCC3COC3)ccc12 [Example 66, (E)-3-(3-methyl-1H-indazol-6-yl)-N-((1S,2S)-2-(oxetan-3-ylmethoxy)-2,3-dihydro-1H-inden-1-yl)acrylamide] | 25.4 µL/min/1e6 cells | 7.2 | 7.3 |  |  |  | 36.1 µL/min/1e6 cells
COc1cc(C)c(NC(=O)/C=C/c2ccc3c(C#N)n[nH]c3c2)c(C)n1 [Example 94, (2E)-3-(3-cyano-1H-indazol-6-yl)-N-(6-methoxy-2,4-dimethylpyridin-3-yl)prop-2-enamide] |  | 7.5 | 7.4 | 43 µM (≈ 14.9 µg/mL) |  |  | 
Cc1n[nH]c2cc(/C=C/C(=O)N[C@H]3c4ccccc4C[C@@H]3OCC3CC3)ccc12 [Example 67, (E)-N-((1S,2S)-2-(cyclopropylmethoxy)-2,3-dihydro-1H-inden-1-yl)-3-(3-methyl-1H-indazol-6-yl)acrylamide] | 42.1 µL/min/1e6 cells | 7.2 | 7.3 |  |  |  | 73.3 µL/min/1e6 cells
Cc1ncccc1NC(=O)/C=C/c1ccc2c(C)n[nH]c2c1 [Example 115, (2E)-3-(3-methyl-1H-indazol-6-yl)-N-(2-methylpyridin-3-yl)prop-2-enamide] |  | 6.2 | 5.7 |  |  |  | 
Cc1n[nH]c2cc(/C=C/C(=O)N[C@H]3c4ccccc4OC[C@@H]3C)ccc12 [Example 65c, (E)-3-(3-methyl-1H-indazol-6-yl)-N-((3R,4R)-3-methylchroman-4-yl)acrylamide] |  | 7.7 | 7.8 |  |  |  | 
Cc1ncc(F)c(C)c1NC(=O)/C=C/c1cc2[nH]nc(C)c2cc1F [Example 107, (2E)-N-(5-fluoro-2,4-dimethylpyridin-3-yl)-3-(5-fluoro-3-methyl-1H-indazol-6-yl)prop-2-enamide] |  | 8.1 | 8.0 |  |  |  | 
Cc1ncc(F)c(C)c1NC(=O)/C=C/c1ccc2c(F)n[nH]c2c1 [Example 108, (2E)-3-(3-fluoro-1H-indazol-6-yl)-N-(5-fluoro-2,4-dimethylpyridin-3-yl)prop-2-enamide] |  | 7.8 | 7.6 |  |  |  | 
CO[C@H]1Cc2ccccc2[C@@H]1NC(=O)/C=C/c1ccc2c(C3CC3)n[nH]c2c1 [Example 70, (E)-3-(3-cyclopropyl-1H-indazol-6-yl)-N-((1S,2S)-2-methoxy-2,3-dihydro-1H-inden-1-yl)acrylamide] | 24.6 µL/min/1e6 cells | 7.5 |  | 18.4 µM (≈ 6.87 µg/mL) | 7.5% |  | 70.1 µL/min/1e6 cells
COc1cc(C)c(NC(=O)/C=C/c2ccc3c(C)n[nH]c3c2)c(C)n1 [Example 91, (2E)-N-(6-methoxy-2,4-dimethylpyridin-3-yl)-3-(3-methyl-1H-indazol-6-yl)prop-2-enamide] |  | 6.2 | 7.2 | 86 µM (≈ 28.9 µg/mL) |  |  | 

Second part, led by results:

hepatocyte CLint at 1 µM [1] | mPTP Rat liver pIC50 [2] | mPTP Rat brain pIC50 [4] | solubility at 2 h [5, 7] | inhibition at 20 min, 1 µM [6] | solubility at 2 h ([5]; aqueous buffer, PBS pH 7.4, 2 hr at 25° C., read-out: Solubility PBS (pH 7.4)) | SMILES | hepatocyte CLint at 1 µM [3]
3 µL/min/1e6 cells | 6.6 | 5.9 | 86 µM (≈ 30.5 µg/mL) |  |  | COCc1c(F)cnc(C)c1NC(=O)/C=C/c1ccc2c(C)n[nH]c2c1 [Example 117, (2E)-N-[5-fluoro-4-(methoxymethyl)-2-methylpyridin-3-yl]-3-(3-methyl-1H-indazol-6-yl)prop-2-enamide] | 
 | 6.5 | 6.2 |  |  |  | Cc1ccnc(C)c1NC(=O)/C=C/c1ccc2c(C)n[nH]c2c1 [Example 116, (2E)-N-(2,4-dimethylpyridin-3-yl)-3-(3-methyl-1H-indazol-6-yl)prop-2-enamide] | 
 | 8.0 | 8.0 |  | 7.5% | 1.2 µM (≈ 0.43 µg/mL) | CO[C@H]1Cc2ccccc2[C@@H]1NC(=O)/C=C/c1ccc2c(C#N)n[nH]c2c1 [Example 74, (E)-3-(3-cyano-1H-indazol-6-yl)-N-((1S,2S)-2-methoxy-2,3-dihydro-1H-inden-1-yl)acrylamide] | 
 | 7.5 | 7.5 | 35 µM (≈ 12.5 µg/mL) |  |  | COc1cc(C)c(NC(=O)/C=C/c2cc3[nH]nc(F)c3cc2F)c(C)n1 [Example 97, (2E)-3-(3,5-difluoro-1H-indazol-6-yl)-N-(6-methoxy-2,4-dimethylpyridin-3-yl)prop-2-enamide] | 
 | 7.6 | 6.8 | 151 µM (≈ 51.4 µg/mL) |  |  | COc1cc(C)c(NC(=O)/C=C/c2ccc3c(F)n[nH]c3c2)c(C)n1 [Example 93, (2E)-3-(3-fluoro-1H-indazol-6-yl)-N-(6-methoxy-2,4-dimethylpyridin-3-yl) prop-2-enamide] | 
 | 8.1 | 8.1 |  |  |  | Cc1ncc(F)c(C)c1NC(=O)/C=C/c1cc2[nH]nc(F)c2cc1F [Example 111, (2E)-3-(3,5-difluoro-1H-indazol-6-yl)-N-(5-fluoro-2,4-dimethylpyridin-3-yl)prop-2-enamide] | 
 | 8.2 | 8.2 |  |  |  | Cc1ncc(F)c(C)c1NC(=O)/C=C/c1ccc2c(Cl)n[nH]c2c1 [Example 112, (2E)-3-(3-chloro-1H-indazol-6-yl)-N-(5-fluoro-2,4-dimethylpyridin-3-yl)prop-2-enamide] | 
